Measurements from ChEMBL document CHEMBL4177539, “Discovery of N-((3R,4R)-4-Fluoro-1-(6-((3-methoxy-1-methyl-1H-pyrazol-4-yl)amino)-9-methyl-9H-purin-2-yl)pyrrolidine-3-yl)acrylamide (PF-06747775) through Structure-Based Drug Design: A High Affinity Irreversible Inhibitor Targeting Oncogenic EGFR Mutants with Selectivity over Wild-Type EGFR” (J Med Chem, 2017).
The source made the active and inactive calls. The rule behind the calls is not given here.

Legend:
[1] = target: Receptor tyrosine-protein kinase erbB-4 (Homo sapiens) (UniProt Q15303); assay: Inhibition of N-terminal GST-tagged recombinant human ErbB4 cytoplasmic domain (708 to 993 residues) expressed in Baculovirus expression system at 1 uM by FRET-based Z'-LYTE assay
Canis familiaris [2] = assay: Toxicity in dog assessed as effect on heart rate administered as single dose; assay type: organism-based, Canis lupus familiaris; details: in vivo
Hepatocyte = details: human, hepatocytes, 1 µM
[3] = Drug metabolism in human liver microsomes assessed as demethylation; assay type: ADME, microsome
Rattus norvegicus [4] = assay: Toxicity in rat assessed as electrocardiogram changes administered as repeated dosing; assay type: organism-based; details: in vivo
[5] = target: Tyrosine-protein kinase BTK (Homo sapiens) (UniProt Q06187); assay: Inhibition of His-tagged full-length recombinant human BTK cytoplasmic domain expressed in Baculovirus expression system at 1 uM by FRET-based Z'-LYTE assay
Chain of Tyrosine-protein kinase BTK (Homo sapiens) (Q06187 whole entry, the tested form may be a part): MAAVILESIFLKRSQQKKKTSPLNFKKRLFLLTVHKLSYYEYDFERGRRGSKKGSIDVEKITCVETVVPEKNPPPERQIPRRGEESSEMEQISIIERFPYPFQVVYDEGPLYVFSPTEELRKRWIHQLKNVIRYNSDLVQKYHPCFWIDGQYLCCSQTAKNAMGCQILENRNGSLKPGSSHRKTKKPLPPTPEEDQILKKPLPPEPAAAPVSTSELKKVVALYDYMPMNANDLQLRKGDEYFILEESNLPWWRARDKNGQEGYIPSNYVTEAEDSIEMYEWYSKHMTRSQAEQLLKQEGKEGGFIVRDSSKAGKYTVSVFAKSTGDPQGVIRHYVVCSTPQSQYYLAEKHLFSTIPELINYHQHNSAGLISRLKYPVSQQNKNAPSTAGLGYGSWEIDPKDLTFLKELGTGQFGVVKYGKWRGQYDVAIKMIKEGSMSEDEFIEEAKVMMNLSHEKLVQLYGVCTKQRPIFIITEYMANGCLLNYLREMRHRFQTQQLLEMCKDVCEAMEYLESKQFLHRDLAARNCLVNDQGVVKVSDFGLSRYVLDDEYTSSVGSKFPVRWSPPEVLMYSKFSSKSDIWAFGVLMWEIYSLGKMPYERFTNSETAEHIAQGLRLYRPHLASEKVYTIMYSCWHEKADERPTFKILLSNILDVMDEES

Rattus norvegicus [6] = assay: Toxicity in rat assessed as effect on central nervous system functions administered as repeated dosing; assay type: organism-based; details: in vivo
[7] = Clearance in Wistar Han rat plasma at 1 mg/kg, iv administered as single dose; assay type: ADME, organism-based
CYP2D6 = CYP2D6 (Homo sapiens, UniProt P10635); assay: Inhibition of human CYP2D6 at 10 uM; assay type: ADME
[8] = Terminal half life in Wistar Han rat at 1 mg/kg, iv administered as single dose; assay type: ADME, organism-based; details: in vivo, read-out: beta t1/2 (converted)
CYP2C9 = CYP2C9 (Homo sapiens, UniProt P11712); assay: Inhibition of human CYP2C9 at 10 uM; assay type: ADME
Chain of CYP2C9 (P11712 whole entry): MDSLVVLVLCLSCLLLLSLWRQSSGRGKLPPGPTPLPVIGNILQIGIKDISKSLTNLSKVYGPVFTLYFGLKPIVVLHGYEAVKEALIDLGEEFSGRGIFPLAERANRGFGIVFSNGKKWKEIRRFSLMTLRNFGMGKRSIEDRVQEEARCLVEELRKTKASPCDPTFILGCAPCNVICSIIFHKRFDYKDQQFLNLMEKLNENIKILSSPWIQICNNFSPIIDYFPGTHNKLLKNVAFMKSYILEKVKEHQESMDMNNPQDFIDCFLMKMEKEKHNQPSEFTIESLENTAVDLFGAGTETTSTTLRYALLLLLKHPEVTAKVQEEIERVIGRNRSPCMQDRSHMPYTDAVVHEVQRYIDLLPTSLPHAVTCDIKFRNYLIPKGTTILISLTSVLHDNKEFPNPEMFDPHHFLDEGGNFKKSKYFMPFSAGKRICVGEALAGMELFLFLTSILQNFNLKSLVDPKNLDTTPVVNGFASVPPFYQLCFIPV

Rattus norvegicus [9] = assay: Toxicity in rat assessed as electrocardiogram changes administered as single dose; assay type: organism-based; details: in vivo
[10] = Apparent intrinsic hepatic clearance in rat hepatocytes; assay type: ADME, cell-based, Hepatocyte; details: read-out: CLH(app)
[11] = target: Voltage-gated inwardly rectifying potassium channel KCNH2 (Homo sapiens, UniProt Q12809); assay: Inhibition of human ERG
Chain of Voltage-gated inwardly rectifying potassium channel KCNH2 (Q12809 whole entry): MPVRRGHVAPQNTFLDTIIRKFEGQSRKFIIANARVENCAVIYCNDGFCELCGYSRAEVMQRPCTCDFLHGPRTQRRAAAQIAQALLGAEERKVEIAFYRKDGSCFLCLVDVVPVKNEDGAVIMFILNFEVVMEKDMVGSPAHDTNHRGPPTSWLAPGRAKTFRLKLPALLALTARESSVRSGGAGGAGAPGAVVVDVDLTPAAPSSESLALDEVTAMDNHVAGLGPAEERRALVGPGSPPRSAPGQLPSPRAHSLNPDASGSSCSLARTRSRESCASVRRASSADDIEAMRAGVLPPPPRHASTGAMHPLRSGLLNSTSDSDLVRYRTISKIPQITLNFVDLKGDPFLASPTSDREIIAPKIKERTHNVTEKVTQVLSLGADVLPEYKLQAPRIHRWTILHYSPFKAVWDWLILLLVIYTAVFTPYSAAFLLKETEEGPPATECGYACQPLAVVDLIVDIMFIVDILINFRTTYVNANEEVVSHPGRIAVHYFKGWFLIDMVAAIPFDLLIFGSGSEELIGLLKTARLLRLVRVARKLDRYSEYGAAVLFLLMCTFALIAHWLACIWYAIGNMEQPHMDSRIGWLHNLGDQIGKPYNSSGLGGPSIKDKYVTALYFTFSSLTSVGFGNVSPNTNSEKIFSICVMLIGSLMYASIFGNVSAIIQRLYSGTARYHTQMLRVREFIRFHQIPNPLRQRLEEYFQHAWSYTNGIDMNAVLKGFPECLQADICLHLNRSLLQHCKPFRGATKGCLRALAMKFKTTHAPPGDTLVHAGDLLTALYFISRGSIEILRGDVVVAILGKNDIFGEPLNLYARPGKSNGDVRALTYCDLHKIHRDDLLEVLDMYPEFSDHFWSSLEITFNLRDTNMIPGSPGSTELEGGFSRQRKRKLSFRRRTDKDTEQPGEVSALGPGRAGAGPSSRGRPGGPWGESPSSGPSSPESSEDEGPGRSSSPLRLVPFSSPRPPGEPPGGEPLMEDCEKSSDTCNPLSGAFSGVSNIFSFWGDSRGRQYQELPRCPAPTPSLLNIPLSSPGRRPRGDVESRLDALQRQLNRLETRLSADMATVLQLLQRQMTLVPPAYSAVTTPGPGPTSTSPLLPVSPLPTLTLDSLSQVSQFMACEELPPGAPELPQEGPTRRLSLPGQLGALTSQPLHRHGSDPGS

[12] = target: Proto-oncogene tyrosine-protein kinase ROS (Homo sapiens) (UniProt P08922); assay: Inhibition of ROS (unknown origin) at 1 uM by cell based assay
Chain of Proto-oncogene tyrosine-protein kinase ROS (Homo sapiens) (P08922 whole entry, the tested form may be a part): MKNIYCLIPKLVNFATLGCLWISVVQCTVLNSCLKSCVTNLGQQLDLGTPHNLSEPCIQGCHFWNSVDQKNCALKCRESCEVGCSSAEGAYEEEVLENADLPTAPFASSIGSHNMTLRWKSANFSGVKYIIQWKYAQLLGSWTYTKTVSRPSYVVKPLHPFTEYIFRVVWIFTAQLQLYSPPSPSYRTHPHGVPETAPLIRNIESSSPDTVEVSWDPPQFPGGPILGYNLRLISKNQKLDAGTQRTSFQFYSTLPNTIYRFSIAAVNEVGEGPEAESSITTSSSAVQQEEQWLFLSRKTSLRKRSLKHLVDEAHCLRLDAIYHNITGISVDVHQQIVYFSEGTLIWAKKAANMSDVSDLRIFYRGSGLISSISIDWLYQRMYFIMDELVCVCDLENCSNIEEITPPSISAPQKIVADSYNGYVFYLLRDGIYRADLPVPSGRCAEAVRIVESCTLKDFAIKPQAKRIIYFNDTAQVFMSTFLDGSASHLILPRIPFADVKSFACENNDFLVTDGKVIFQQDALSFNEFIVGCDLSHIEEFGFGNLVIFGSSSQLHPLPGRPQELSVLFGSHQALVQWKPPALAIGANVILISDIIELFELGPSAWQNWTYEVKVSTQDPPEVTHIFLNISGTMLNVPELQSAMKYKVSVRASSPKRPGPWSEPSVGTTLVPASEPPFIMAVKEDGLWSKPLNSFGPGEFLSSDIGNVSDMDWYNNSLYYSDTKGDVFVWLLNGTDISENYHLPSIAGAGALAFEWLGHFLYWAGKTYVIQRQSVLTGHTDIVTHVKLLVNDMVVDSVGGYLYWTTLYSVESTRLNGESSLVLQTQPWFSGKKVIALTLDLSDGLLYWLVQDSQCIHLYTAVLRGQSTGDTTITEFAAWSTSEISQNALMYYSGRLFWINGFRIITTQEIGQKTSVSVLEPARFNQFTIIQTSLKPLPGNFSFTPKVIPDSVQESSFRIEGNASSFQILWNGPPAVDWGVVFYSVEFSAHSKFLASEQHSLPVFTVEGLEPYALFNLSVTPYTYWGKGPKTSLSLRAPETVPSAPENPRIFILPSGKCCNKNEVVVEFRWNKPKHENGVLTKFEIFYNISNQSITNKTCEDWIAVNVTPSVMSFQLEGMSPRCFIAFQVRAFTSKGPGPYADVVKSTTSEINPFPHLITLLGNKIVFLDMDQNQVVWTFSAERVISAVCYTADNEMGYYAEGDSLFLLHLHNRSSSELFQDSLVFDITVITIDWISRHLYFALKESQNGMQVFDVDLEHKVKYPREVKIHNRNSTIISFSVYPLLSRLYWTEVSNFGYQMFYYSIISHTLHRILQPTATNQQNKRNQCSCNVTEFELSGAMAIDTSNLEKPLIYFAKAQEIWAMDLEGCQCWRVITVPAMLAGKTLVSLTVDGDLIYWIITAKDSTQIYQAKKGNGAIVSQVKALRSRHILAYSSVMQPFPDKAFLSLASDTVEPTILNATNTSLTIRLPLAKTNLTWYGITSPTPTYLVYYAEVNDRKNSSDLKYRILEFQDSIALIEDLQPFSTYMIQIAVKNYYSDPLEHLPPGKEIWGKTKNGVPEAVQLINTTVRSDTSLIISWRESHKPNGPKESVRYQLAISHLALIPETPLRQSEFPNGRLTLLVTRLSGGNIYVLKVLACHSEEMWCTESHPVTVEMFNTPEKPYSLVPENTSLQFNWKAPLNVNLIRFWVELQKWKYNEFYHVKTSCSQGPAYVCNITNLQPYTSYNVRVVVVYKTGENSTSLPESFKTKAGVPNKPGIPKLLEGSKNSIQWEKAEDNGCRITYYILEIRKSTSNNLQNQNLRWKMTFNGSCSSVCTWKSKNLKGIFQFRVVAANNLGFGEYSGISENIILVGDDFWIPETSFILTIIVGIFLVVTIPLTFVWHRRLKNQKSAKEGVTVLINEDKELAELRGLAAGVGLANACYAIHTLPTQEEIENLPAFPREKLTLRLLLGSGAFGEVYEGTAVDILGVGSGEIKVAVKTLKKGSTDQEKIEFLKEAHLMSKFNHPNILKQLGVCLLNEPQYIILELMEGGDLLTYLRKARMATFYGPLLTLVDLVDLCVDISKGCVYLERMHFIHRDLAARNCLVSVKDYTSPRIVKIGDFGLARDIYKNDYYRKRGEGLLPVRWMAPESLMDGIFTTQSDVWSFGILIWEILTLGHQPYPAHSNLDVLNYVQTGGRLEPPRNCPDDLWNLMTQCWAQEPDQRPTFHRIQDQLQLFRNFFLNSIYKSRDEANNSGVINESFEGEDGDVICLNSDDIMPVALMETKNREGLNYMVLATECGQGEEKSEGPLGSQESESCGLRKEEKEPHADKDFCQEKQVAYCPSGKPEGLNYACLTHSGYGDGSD

Canis familiaris [13] = assay: Toxicity in dog assessed as electrocardiogram changes administered as single dose; assay type: organism-based, Canis lupus familiaris; details: in vivo
[14] = target: Tyrosine-protein kinase Blk (Homo sapiens) (UniProt P51451); assay: Inhibition of BLK (unknown origin) at 1 uM by cell based assay
Canis familiaris [15] = assay: Toxicity in dog assessed as effect on central nervous system functions administered as single dose; assay type: organism-based, Canis lupus familiaris; details: in vivo
Rattus norvegicus [16] = assay: Toxicity in rat assessed as effect on pulmonary system functions administered as repeated dosing; assay type: organism-based; details: in vivo
Rattus norvegicus [17] = assay: Toxicity in rat assessed as effect on heart rate administered as repeated dosing; assay type: organism-based; details: in vivo
in vitro [18] = details: human, liver microsomes
[19] = target: Proto-oncogene tyrosine-protein kinase ROS (Homo sapiens) (UniProt P08922); assay: Inhibition of GST-tagged recombinant human ROS cytoplasmic domain (1883 to 2347 residues) expressed in Baculovirus expression system at 1 uM by FRET-based Z'-LYTE assay
Rattus norvegicus [20] = assay: Toxicity in rat assessed as effect on pulmonary system functions administered as single dose; assay type: organism-based; details: in vivo
[21] = Oral bioavailability in Beagle dog at 3 mg/kg administered as single dose; assay type: ADME, organism-based, Canis lupus familiaris; details: in vivo
Rattus norvegicus [22] = assay: Toxicity in rat assessed as effect on blood pressure administered as repeated dosing; assay type: organism-based; details: in vivo
[23] = Fraction unbound in human plasma at 2 uM by LC-MS/MS based equilibrium dialysis method; assay type: ADME, cell-free
[24] = Terminal half life in Beagle dog at 1 mg/kg, iv administered as single dose; assay type: ADME, organism-based, Canis lupus familiaris; details: in vivo, read-out: beta t1/2 (converted)
[25] = Half life in human blood at 1 uM by LC-MS/MS analysis; assay type: ADME, tissue-based
[26] = Volume of distribution at steady state in Wistar Han rat at 1 mg/kg, iv administered as single dose; assay type: ADME, organism-based; details: in vivo, read-out: Vdss
in vitro [27] = details: dog, MDCK
[28] = target: Tyrosine-protein kinase TXK (Homo sapiens) (UniProt P42681); assay: Inhibition of GST-tagged full-length recombinant human TXK cytoplasmic domain expressed in Baculovirus expression system at 1 uM by FRET-based Z'-LYTE assay
Canis familiaris [29] = assay: Toxicity in dog assessed as effect on pulmonary system functions administered as repeated dosing; assay type: organism-based, Canis lupus familiaris; details: in vivo
[30] = Apparent intrinsic hepatic clearance in dog hepatocytes; assay type: ADME, cell-based, Canis lupus familiaris, Hepatocyte; details: read-out: CLH(app)
Canis familiaris [31] = assay: Toxicity in dog assessed as effect on pulmonary system functions administered as single dose; assay type: organism-based, Canis lupus familiaris; details: in vivo
[32] = Apparent intrinsic clearance in rat microsomes; assay type: ADME, Microsome; details: read-out: CL(app)
Salmonella typhimurium = assay: Mutagenicity in Salmonella typhimurium by Ames test; assay type: toxicity, organism-based; details: salmonella enterica subsp. enterica serovar typhimurium
[33] = Oral bioavailability in Nu/Nu mouse at 1 mg/kg administered as single dose; assay type: ADME, organism-based; details: in vivo
[34] = target: Tyrosine-protein kinase BTK (Homo sapiens) (UniProt Q06187); assay: Inhibition of BTK (unknown origin) at 1 uM by cell based assay

inhibition [1]: > 50% | CLH (Hepatocyte): 3 µL/min/mg | Drug metabolism [3]: Metabolite_Detected | inhibition [5]: > 50% | clearance [7]: 49 mL/min/kg | inhibition at 10 µM (CYP2D6): < 30% | half-life [8]: 0.28 h | inhibition at 10 µM (CYP2C9): < 30% | CLint scaled [10]: 183 mL/min/kg | inhibition [12]: Active | inhibition [14]: Active | microsomal CLint at […], 1 µM (in vitro [18]): 8 µL/min/mg | inhibition [19]: > 50% | bioavailability [21]: 66% | fraction unbound at 2 µM [23]: 0.27 | half-life [24]: 1.3 h | half-life at 1 µM [25]: 5.8 h | Vd [26]: 0.66 L/kg | Papp (in vitro [27]): 9 ×10⁻⁶ cm/s | inhibition [28]: > 50% | CLint scaled [30]: 17 mL/min/kg | CLint scaled [32]: 141 mL/min/kg | bioavailability [33]: 60% | inhibition [34]: Active
Structure (SMILES): C=CC(=O)N[C@@H]1CN(c2nc(Nc3cn(C)nc3OC)c3ncn(C)c3n2)C[C@H]1F [MAVELERTINIB]
Activity (Canis familiaris [2]): Non-Toxic | Activity (Rattus norvegicus [4]): Non-Toxic | Activity (Rattus norvegicus [6]): Non-Toxic | Activity (Rattus norvegicus [9]): Non-Toxic | IC50 [11]: > 100 µM | Activity (Canis familiaris [13]): Non-Toxic | Activity (Canis familiaris [15]): Non-Toxic | Activity (Rattus norvegicus [16]): Non-Toxic | Activity (Rattus norvegicus [17]): Non-Toxic | Activity (Rattus norvegicus [20]): Non-Toxic | Activity (Rattus norvegicus [22]): Non-Toxic | Activity (Canis familiaris [29]): Non-Toxic | Activity (Canis familiaris [31]): Non-Toxic | Activity (Salmonella typhimurium): Non-Toxic
